Earlier results in patent publication US20250302767A1, “TREATMENT OF CANCER AND AUTOIMMUNE DISORDERS USING NANO POLYMERS OF HISTONE DEACETYLASE INHIBITORS” (University of Virginia Patent Foundation, priority 2021, published 2025).

What was measured:
ALCL = conditions: patients with ALCL, pivotal trials (3, 4); cited from earlier work
PTCL = conditions: patients with PTCL, single agent, cited from earlier work; for Outcomes: ORR: pivotal trial cited per drug (romidepsin: trial (6) Coiffier et al., 2014); for Outcomes: CR / Outcomes: DOR: pivotal trial cited per drug (romidepsin: trial (6))

| Molecule | Outcomes: CR (ALCL) [%] | Outcomes: DOR (ALCL) [months] | Outcomes: ORR (ALCL) [%] | Outcomes: ORR (PTCL) [%] | Outcomes: CR (PTCL) [%] | Outcomes: DOR (PTCL) [months] |
| --- | --- | --- | --- | --- | --- | --- |
| Brentuximab vedotin | 57 | 13.2 | 86 |  |  |  |
| Nc1cc(F)ccc1NC(=O)c1ccc(CNC(=O)/C=C/c2cccnc2)cc1 [Chidamide, N-(2-Amino-4-fluorophenyl)-4-[[[(E)-3-pyridin-3-ylprop-2-enoyl]amino]methyl]benzamide] |  |  |  | 28 | 14 | 9.9 |
| O=C(/C=C/c1cccc(S(=O)(=O)Nc2ccccc2)c1)NO [Belinostat] |  |  |  | 26 | 11 | 13.6 |
| C#CCC(Cc1cnc2nc(N)nc(N)c2n1)c1ccc(C(=O)N[C@@H](CCC(=O)O)C(=O)O)cc1 (stereo partly drawn) [Pralatrexate] |  |  |  | 29 | 11 | 10.1 |
